The target of assay [1] is Recombinant human DDR1 (aa440-876 containing a GST tag) (Homo sapiens (Human), UniProt Q08345). The experiment in a line: LanthaScreen Eu Kinase Binding Assay DDR1. The note with it: Kinase Tracer 178 5 nM, at least two independent replicates; for IC50: read-out: DDR1 pIC50 (converted). Summed up:
(§1)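 DDR1 (2.5 nM) or DDR2 (1.75 nM) was preincubated with compound 30 min at RT in 50 mM HEPES pH 7.3, 10 mM MgCl2, 1 mM EGTA, 0.01% Tween. Eu-anti-GST and Tracer 178 were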
A general note: TR-FRET usually uses a lanthanide donor and a delayed reading to cut background.

The target in assay [2] is Recombinant human DDR2 (aa427-855 containing a GST tag) (Homo sapiens (Human), UniProt Q16832). The experiment in a line: LanthaScreen Eu Kinase Binding Assay DDR2. The note with it: Kinase Tracer 178 10 nM, at least two independent replicates; for IC50: read-out: DDR2 pIC50 (converted). Summed up:
as §1

The values that follow come from US20260055102A1 (Redx Pharma Limited, priority 2022, published 2026).

Recombinant human DDR2 (aa427-855 containing a GST tag), sequence (Q16832 427-855): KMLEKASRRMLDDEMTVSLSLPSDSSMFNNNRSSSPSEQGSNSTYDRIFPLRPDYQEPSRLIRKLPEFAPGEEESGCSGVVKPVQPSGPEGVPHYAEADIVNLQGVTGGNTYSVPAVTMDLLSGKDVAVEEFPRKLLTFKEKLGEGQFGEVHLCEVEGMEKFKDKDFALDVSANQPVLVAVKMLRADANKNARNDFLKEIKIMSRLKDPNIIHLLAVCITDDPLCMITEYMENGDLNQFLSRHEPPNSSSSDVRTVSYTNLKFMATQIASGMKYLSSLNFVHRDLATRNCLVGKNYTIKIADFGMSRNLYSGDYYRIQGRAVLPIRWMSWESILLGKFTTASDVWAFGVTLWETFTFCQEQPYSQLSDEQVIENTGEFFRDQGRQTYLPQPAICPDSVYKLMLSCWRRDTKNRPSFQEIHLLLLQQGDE
Recombinant human DDR1 (aa440-876 containing a GST tag), sequence (Q08345 other isoform, or with tags, fused parts or gaps): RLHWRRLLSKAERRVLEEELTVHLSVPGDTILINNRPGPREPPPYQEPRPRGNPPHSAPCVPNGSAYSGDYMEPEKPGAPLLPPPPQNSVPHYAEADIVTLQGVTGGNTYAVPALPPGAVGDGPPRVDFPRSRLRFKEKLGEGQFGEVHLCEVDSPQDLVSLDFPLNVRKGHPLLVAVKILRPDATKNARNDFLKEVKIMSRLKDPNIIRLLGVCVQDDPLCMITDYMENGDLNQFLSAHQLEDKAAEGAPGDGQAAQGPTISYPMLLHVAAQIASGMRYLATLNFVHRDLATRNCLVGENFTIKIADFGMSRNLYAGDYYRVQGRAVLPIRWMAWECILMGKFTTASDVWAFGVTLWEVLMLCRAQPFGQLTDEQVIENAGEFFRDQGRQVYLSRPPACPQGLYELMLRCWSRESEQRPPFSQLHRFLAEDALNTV

`Cn1ncc2c(-c3ccc(-n4c(=O)n(CC(=O)NCC(F)(F)F)c5cnccc54)cc3)cncc21` [Example 78, 2-[1-[4-(1-methylpyrazolo[3,4-c]pyridin-4-yl)phenyl]-2-oxo-imidazo[4,5-c]pyridin-3-yl]-N-(2,2,2-trifluoroethyl)acetamide]: the “DDR1 pIC50” value in assay [1] was “D (pIC50≤6)”. In addition, the “DDR2 pIC50” value in assay [2] is “D (pIC50≤6)”.
With `Cc1cccc2c1n(-c1ccc(-c3cncc4c3cnn4C)nc1)c(=O)n2CC(=O)N[C@@H](C)C(F)(F)F` [Example 52, 2-[4-methyl-3-[6-(1-methylpyrazolo[3,4-c]pyridin-4-yl)-3-pyridyl]-2-oxo-benzimidazol-1-yl]-N-[(1S)-2,2,2-trifluoro-1-methyl-ethyl]acetamide], the “DDR1 pIC50” value in assay [1] is recorded as “A (pIC50>8)”. In addition, in assay [2], the IC50 was 10 to 100 nM.
Turning to `Cc1cc(-c2cncc3c2cnn3C)ccc1-n1c(=O)n(CC(=O)N2CCOC(C(F)(F)F)C2)c2ccccc21` (centres unmarked) [Example 40, 1-[2-methyl-4-(1-methylpyrazolo[3,4-c]pyridin-4-yl)phenyl]-3-[2-oxo-2-[2-(trifluoromethyl)morpholin-4-yl]ethyl]benzimidazol-2-one], the IC50 in assay [1] is 10 to 100 nM. Besides, the “DDR2 pIC50” value in assay [2] is recorded as “D (pIC50≤6)”.
For `Cc1cccc2c1n(-c1ccc(-c3cncc4c3cnn4C)cc1)c(=O)n2CC(=O)N1CCOCC1C(F)(F)F` (centres unmarked) [Example 39, 4-methyl-3-[4-(1-methylpyrazolo[3,4-c]pyridin-4-yl)phenyl]-1-[2-oxo-2-[3-(trifluoromethyl)morpholin-4-yl]ethyl]benzimidazol-2-one], the “DDR1 pIC50” value in assay [1] is on record as “A (pIC50>8)”. The IC50 in assay [2] is 10 to 100 nM.
Take `Cc1cc(-c2cncc3c2cnn3C)ccc1-n1c(=O)n(CC(=O)NCC(F)(F)F)c2ccccc21` [Example 13, 2-[3-[2-methyl-4-(1-methylpyrazolo[3,4-c]pyridin-4-yl)phenyl]-2-oxobenzimidazol-1-yl]-N-(2,2,2-trifluoroethyl)acetamide]: the IC50 in assay [1] was 10 to 100 nM. In addition, the “DDR2 pIC50” value in assay [2] is listed as “D (pIC50≤6)”.
On to `Cc1cc(-c2cncc3c2cnn3C)cc(C)c1-n1c(=O)n(CC(=O)NCC(F)(F)F)c2ccccc21` [Example 90, 2-[3-[2,6-dimethyl-4-(1-methylpyrazolo[3,4-c]pyridin-4-yl)phenyl]-2-oxo-benzimidazol-1-yl]-N-(2,2,2-trifluoroethyl)acetamide], for which, in assay [1], the IC50 is 100 to 1000 nM. Moreover, the “DDR2 pIC50” value in assay [2] is recorded as “D (pIC50≤6)”.
In the case of `C[C@@H](CC(F)(F)F)NC(=O)Cn1c(=O)n(-c2ccc(-c3cncc4c3cnn4C)cc2)c2ccccc21` [Example 62, 2-[3-[4-(1-methylpyrazolo[3,4-c]pyridin-4-yl)phenyl]-2-oxo-benzimidazol-1-yl]-N-[(1S)-3,3,3-trifluoro-1-methyl-propyl]acetamide], the “DDR1 pIC50” value in assay [1] was “A (pIC50>8)”. Further, in assay [2], the IC50 is 100 to 1000 nM.
With `Cn1ncc2c(-c3ccc(-n4c(=O)n(CC(=O)N5CC(F)(F)C5)c5ccccc54)cc3)cncc21` [Example 35, 1-[2-(3,3-difluoroazetidin-1-yl)-2-oxoethyl]-3-[4-(1-methylpyrazolo[3,4-c]pyridin-4-yl)phenyl]benzimidazol-2-one], the “DDR1 pIC50” value in assay [1] is “D (pIC50≤6)”. Moreover, the “DDR2 pIC50” value in assay [2] is “D (pIC50≤6)”.
Turning to `Cn1ncc2c(-c3ccc(-n4c(=O)n(CC(=O)NCC(F)(F)F)c5cccc(F)c54)cc3)cncc21` [Example 86, 2-[4-fluoro-3-[4-(1-methylpyrazolo[3,4-c]pyridin-4-yl)phenyl]-2-oxo-benzimidazol-1-yl]-N-(2,2,2-trifluoroethyl)acetamide], the IC50 in assay [1] is 100 to 1000 nM. Further, the “DDR2 pIC50” value in assay [2] is “D (pIC50≤6)”.
For the compound `Cn1ncc2c(-c3ccc(-n4c(=O)n(CC(=O)N5CC(C(F)(F)F)C5)c5ccccc54)cc3)cncc21` [Example 34, 1-[4-(1-methylpyrazolo[3,4-c]pyridin-4-yl)phenyl]-3-[2-oxo-2-[3-(trifluoromethyl)azetidin-1-yl]ethyl]benzimidazol-2-one], the IC50 in assay [1] was 100 to 1000 nM. Also, in assay [2], the “DDR2 pIC50” value is on record as “D (pIC50≤6)”.
On to `Cc1nc(-c2cncc3c2cnn3C)cnc1-n1c(=O)n(CC(=O)N[C@@H](C)C(F)(F)F)c2cccc(C)c21` [Example 115], for which the IC50 in assay [1] and in assay [2] was 10 to 100 nM each time.
`Cn1ncc2c(-c3ccc(-n4c(=O)n(CC(=O)NCC(F)(F)F)c5cccc(C#N)c54)cc3)cncc21` [Example 74, 2-[4-cyano-3-[4-(1-methylpyrazolo[3,4-c]pyridin-4-yl)phenyl]-2-oxo-benzimidazol-1-yl]-N-(2,2,2-trifluoroethyl)acetamide]: the IC50 in assay [1] is 10 to 100 nM. Also, the “DDR2 pIC50” value in assay [2] is “D (pIC50≤6)”.
`Cc1cccc2c1n(-c1ccc(-c3cncc4c3cnn4C)nc1)c(=O)n2CC(=O)N1CCC[C@H]1C(F)(F)F` [Example 56, 4-methyl-3-[6-(1-methylpyrazolo[3,4-c]pyridin-4-yl)-3-pyridyl]-1-[2-oxo-2-[(2S)-2-(trifluoromethyl)pyrrolidin-1-yl]ethyl]benzimidazol-2-one]: in assay [1], the “DDR1 pIC50” value is on record as “A (pIC50>8)”. Moreover, in assay [2], the IC50 is 10 to 100 nM.
Turning to `Cc1cc(-c2cncc3c2cnn3C)ccc1-n1c(=O)n(CC(=O)N[C@@H](C)C(F)(F)F)c2cccc(Cl)c21` [Example 84, 2-[4-chloro-3-[2-methyl-4-(1-methylpyrazolo[3,4-c]pyridin-4-yl)phenyl]-2-oxo-benzimidazol-1-yl]-N-[(1S)-2,2,2-trifluoro-1-methyl-ethyl]acetamide], in assay [1], the “DDR1 pIC50” value is “A (pIC50>8)”. The IC50 in assay [2] is 10 to 100 nM.
`Cc1cc(-c2cncc3c2cnn3C)cnc1-n1c(=O)n(CC(=O)NCC(F)(F)F)c2cccc(C)c21` [Example 110]: in assay [1], the IC50 is 10 to 100 nM. The “DDR2 pIC50” value in assay [2] is reported as “D (pIC50≤6)”.
In the case of `O=C(Cn1c(=O)n(-c2ccc(-c3cncc4[nH]ncc34)cc2)c2ccccc21)NCC(F)(F)F` [Example 41, 2-[2-oxo-3-[4-(1H-pyrazolo[3,4-c]pyridin-4-yl)phenyl]benzimidazol-1-yl]-N-(2,2,2-trifluoroethyl)acetamide], the IC50 is 10 to 100 nM in assay [1] and 100 to 1000 nM in assay [2].
In the case of `C[C@@H]1CCCN1C(=O)Cn1c(=O)n(-c2ccc(-c3cncc4c3cnn4C)cc2)c2ccccc21` [Example 27, 1-[4-(1-methylpyrazolo[3,4-c]pyridin-4-yl)phenyl]-3-[2-[(2R)-2-methylpyrrolidin-1-yl]-2-oxoethyl]benzimidazol-2-one], the IC50 in assay [1] is 10 to 100 nM. The “DDR2 pIC50” value in assay [2] is “D (pIC50≤6)”.
For `Cc1cccc2c1n(-c1ccc(-c3cncc4c3cnn4C)cc1)c(=O)n2CC(=O)N1CCC[C@H]1C(F)(F)F` [Example 8, 4-methyl-3-[4-(1-methylpyrazolo[3,4-c]pyridin-4-yl)phenyl]-1-[2-oxo-2-[(2S)-2-(trifluoromethyl)pyrrolidin-1-yl]ethyl]benzimidazol-2-one], the “DDR1 pIC50” value in assay [1] is “A (pIC50>8)”. Also, the “DDR2 pIC50” value in assay [2] is reported as “A (pIC50>8)”.
In the case of `Cn1ncc2c(-c3ccc(-n4c(=O)n(CC(=O)N5CCOCC5)c5ccccc54)cc3)cncc21` [Example 22, 1-[4-(1-methylpyrazolo[3,4-c]pyridin-4-yl)phenyl]-3-(2-morpholino-2-oxoethyl)benzimidazol-2-one], in assay [1], the “DDR1 pIC50” value is listed as “D (pIC50≤6)”. In addition, the “DDR2 pIC50” value in assay [2] was “D (pIC50≤6)”.
